In patent US6339064B1, “Benzylglycosylamides as inhibitors of smooth muscle cell proliferation” (American Home Products Corporation, priority 1998, dated 2002):

test system: Porcine Smooth Muscle Cell; assay: Effects of compounds on cell proliferation using 3H thymidine incorporation (porcine smooth muscle cell antiproliferation); type: cell-based; details: at 50 μM, control (100%) = maximally stimulated cells
Experimental: Effects of Compounds on Cell Proliferation Using ^3H Thymidine Incorporation
Human and porcine smooth muscle cells were tested in early passage (generally passage 3-7) at sub-confluent conditions. Cultures were grown in 16 mm (24 well) multi-well culture dishes in medium 199 supplemented with 10% fetal bovine serum and 2% antibiotic/antimycotic. At sub-confluence, the cells were placed in a defined serum free medium (AIM-V; Gibco) for 24-48 h prior to initiating the experimental protocol.
Compounds were added to each well at 50 fold dilution (20 μL/well) and the plates were incubated for 24-36 h at 37° C. in 5% CO2. Compounds were initially dissolved in 50% ethanol and serially diluted into media. Compounds were routinely evaluated at concentrations from 1 to 100 μM. As a control, grade II porcine intestinal mucosal herapin (sodium salt) was routinely evaluated in all cell preparations at concentrations from 0.1 to 100 μg/mL.
At the completion of the test procedure, plates were placed on ice, washed three times with ice cold phosphate buffered saline (PBS) and incubated in ice cold 10% trichloroacetic acid (TCA) got 30 min to remove acid soluble proteins. Solution was transferred to scintillation vials containing 0.4 N HCl (500 μL/vial to neutralize NaOH) and each well was rinsed two times with water (500 μL) for a total volume of 2 mL/vial.
Data was obtained, in triplicate, for both control and experimental samples. Control (100%) data was obtained from maximally stimulated cells, as the result of growth factor or serum stimulation. Experimental data was obtained from cells maximally stimulated with growth factor or serum and treated with compound. Data are expressed as an IC50 in Table I below.

In order of falling “Porcine Smooth Muscle Cell Antiproliferation, % at 50 μM” value:
1. CC(=O)OC[C@H]1O[C@@H](NC(=O)Cc2ccc(O)c([N+](=O)[O-])c2)[C@H](OC(C)=O)[C@@H](OC(C)=O)[C@@H]1O[C@H]1O[C@H](COC(C)=O)[C@@H](OC(C)=O)[C@H](OC(C)=O)[C@H]1OC(C)=O [Example 48, N-(Hepta-O-acetyl-β-D-maltosyl)-2-(4-hydroxy-3-nitro-phenyl)-acetamide]  37% at 50
2. O=C(N[C@@H]1O[C@H](CO)[C@@H](O[C@H]2O[C@@H]3COC(c4ccccc4)O[C@H]3[C@H](O)[C@H]2O)[C@H](O)[C@H]1O)c1cccc(C(F)(F)F)c1 (stereo partly drawn) [Example 39, N-(4′,6′-O-Benzylidene-β-D-maltosyl)-3-(trifluoromethyl)-Benzamide]  15% at 50
3. O=C(N[C@@H]1O[C@H](CO)[C@@H](O[C@H]2O[C@@H]3COC(c4ccccc4)O[C@H]3[C@H](O)[C@H]2O)[C@H](O)[C@H]1O)c1ccc(Cl)cc1 (stereo partly drawn) [Example 11, N-(4′,6′-O-Benzylidene-β-D-maltosyl)-4-chloro-benzamide]  15% at 50
4. CC(=O)OCC1OC(NC(=O)c2ccc(OCCCC#N)c([N+](=O)[O-])c2)C(OC(C)=O)C(OC(C)=O)C1OC1OC(COC(C)=O)C(OC(C)=O)C(OC(C)=O)C1OC(C)=O (stereo not drawn) [Example 28]  3% at 50
5. CC(=O)Nc1cc(C(=O)N[C@@H]2O[C@H](COC(C)=O)[C@@H](O[C@H]3O[C@H](COC(C)=O)[C@@H](OC(C)=O)[C@H](OC(C)=O)[C@H]3OC(C)=O)[C@H](OC(C)=O)[C@H]2OC(C)=O)ccc1OCCCC#N [Example 33]  0% at 50

same assay, conditions: serum/growth factor stimulated cells, 24-36 h incubation

In order of falling IC50:
1. COc1ccc(CC(=O)N[C@@H]2O[C@H](COC(C)=O)[C@@H](O[C@H]3O[C@H](COC(C)=O)[C@@H](OC(C)=O)[C@H](OC(C)=O)[C@H]3OC(C)=O)[C@H](OC(C)=O)[C@H]2OC(C)=O)cc1OC [Example 45, N-(2,2′,3,3′,4′,6,6′-hepta-O-acetyl-β-D-maltosyl)-1-(3,4-dimethoxy)-phenyl-acetamide]  16.6 µM
2. CCCCOc1c(Cl)cc(C(=O)N[C@@H]2O[C@H](COC(C)=O)[C@@H](O[C@H]3O[C@H](COC(C)=O)[C@@H](OC(C)=O)[C@H](OC(C)=O)[C@H]3OC(C)=O)[C@H](OC(C)=O)[C@H]2OC(C)=O)cc1Cl [Example 49, N-(2,2′,3,3′,4′,6,6′-Hepta-O-acetyl-β-D-maltosyl)-4-butoxy-3,5-dichloro-benzylamide]  12.6 µM
3. O=C(NC1OC(COC(=O)c2ccccc2)C(OC2OC3COC(c4ccccc4)OC3C(O)C2O)C(O)C1O)c1cccc(C(F)(F)F)c1 [Example 40, N-[{6-O-Benzoyl-4′,6′-O-benzylidene}-β-D-maltosyl]-3-(trifluoromethyl)-benzamide]  7.15 µM
4. CC(=O)OC[C@H]1O[C@@H](NC(=O)c2cccc(C(F)(F)F)c2)[C@H](OC(C)=O)[C@@H](OC(C)=O)[C@@H]1O[C@H]1O[C@H](COC(C)=O)[C@@H](OC(C)=O)[C@H](OC(C)=O)[C@H]1OC(C)=O [Example 38, N-(Hepta-O-acetyl-β-D-maltosyl)-3-(trifluoromethyl)-benzamide]  5.8 µM
5. N#CCCCOc1ccc(C(=O)NC2OC(COC(=O)c3ccccc3)C(OC3OC4COC(c5ccccc5)OC4C(O)C3O)C(O)C2O)cc1[N+](=O)[O-] [Example 30, N-(6-O-Benzoyl-4′,6′-O-benzylidene-β-D-maltosyl)-4-(4-nitrilo-butoxy)-3-nitro-benzamide]  1.4 µM
6. O=C(NC1OC(COC(=O)c2ccccc2)C(OC2OC3COC(c4ccccc4)OC3C(O)C2O)C(O)C1O)c1ccc(Cl)c([N+](=O)[O-])c1 [Example 7, (R)-4-chloro-N-[(6-O-benzoyl-4′,6′-O-benzylidene)-β-D-maltosyl]-3-nitro-benzamide]  0.55 µM
7. N#CCCCOc1ccc(C(=O)NC2OC(COC(=O)c3ccccc3)C(OC3OC4COC(c5ccccc5)OC4C(O)C3O)C(O)C2O)cc1Cl [Example 16, N-(6-O-Benzoyl-4′,6′-O-benzylidene-β-D-maltosyl)-3-chloro-4-(4-nitrilo-butoxy)-phenyl amide]  0.27 µM
